The record followed here is patent US20090264338A1, “Inhibitor of Insulin Multimer Formation” (priority 2005, published 2009).

The subject of experiment [1] is Fc-fusion human insulin receptor. The experiment can be described thus: BIACORE 2000 analysis of the interaction between insulin and insulin receptor in the presence of the peptides. It is filed as binding. The conditions noted are these: 5 μM insulin forming a hexamer in the presence of 100 μM ZnCl2, 500 μM peptide added. Here is the method: A DNA sequence encoding the Fc-fusion human insulin receptor (Bass, J. J. Biol. Chem. 271, 19367 (1996)) was constructed and inserted into the vector pEF-BOS (Nucleic Acids Res. 1990 Sep. 11; 18(17): 5322). Mammalian cells, FreeStyle 293-F, were cultured at 37° C., and the concentration of the cells was adjusted to 1×10^6 cells/mL. The insulin receptor-expressing plasmid was mixed with Cellfectin (Invitrogen Corporation), and added to the cells, followed by culture for an additional two days. The obtained culture supernatant was purified by protein A affinity chromatography, to yield an Fc-fusion human insulin receptor.
Commercially available insulin (manufactured by Sigma-Aldrich Corp.) and the Fc-fusion human insulin receptor obtained by the method above (item (1)) were used to analyze the interaction between insulin and the insulin receptor (BIACORE 2000, manufactured by Biacore Medical Technologies, Inc.). First, PBS with or without 100 μM ZnCl2 was used to prepare 5 μM insulin solutions.
Subsequently, 500 μM INHD1 and INHD2 peptides were added to insulin that forms a hexamer in the presence of ZnCl2, and the interaction between insulin and the insulin receptor was observed.
For orientation: Surface plasmon resonance follows binding to a sensor surface in real time, without labels.

The next experiment deals with T1, insulin hexamer (Homo sapiens, UniProt P01308).
T1 construct: purchased Sigma-Aldrich Corp
T1 sequence (P01308 25-54 limits assumed): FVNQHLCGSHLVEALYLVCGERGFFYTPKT
T1 sequence (P01308 90-110 limits assumed): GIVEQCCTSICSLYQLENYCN
The experiment can be described thus: Gel filtration chromatography of insulin hexamer formation in the presence of INHD peptide. Type of experiment: biochemical. The conditions noted are these: 5 μM insulin. Here is the method: In order to separately detect insulin hexamers and insulin monomers, gel filtration chromatography was performed. PBS supplemented with 100 μM ZnCl2 was used as a solvent to form hexamers at a concentration of this experiment (5 μM). This is because zinc ion stabilizes insulin hexamers. For the 5 μM insulin solution, the hexamer was the main peak, and the ratio of the monomer was extremely low.
The insulin solution was subjected to gel filtration chromatography in the presence of the INHD peptide to show inhibition of insulin hexamer formation by the INHD peptide.
(SEC sorts molecules by how far they enter the pores of the column.)

Regarding “INHD1: Designed peptide from insulin B-chain positions 5 to 29, with Glu/Lys introduced, Glu13 to Gln, Leu17 to Ala, Cys19 to Ser (HEEGSKKVQELYAKSGERGFFYTPK)”, the “receptor binding of insulin (interaction between insulin and the insulin receptor)” value in experiment [1] was “significantly increased to a level approximately equal to that with an insulin monomer”. The “peak which represents the insulin hexamer (gel filtration)” value with insulin hexamer (500 μM peptide, PBS with 100 μM ZnCl2) is “significantly decreased”.
For “INHD2: Smaller designed peptide corresponding to the insulin B-chain α-helix at positions 5 to 20 (HEEGSKKVQELYAKSG)”, in experiment [1], the “receptor binding of insulin (interaction between insulin and the insulin receptor)” value is on record as “significantly increased to a level approximately equal to that with an insulin monomer”. The “inhibition of hexamer formation (gel filtration)” value in the experiment with insulin hexamer (PBS with 100 μM ZnCl2, compared with INHD1 peptide) was “slightly lower than that for the INHD1 peptide”.
